From PubChem BioAssay (NCI)
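All cell lines were grown in 96-well plates and treated with compound for 48 hours. TGI marks complete inhibition of growth.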

Legend:
Assay in all cases: NCI tumour cell line growth inhibition, 48 h
[1] = test system: HS 578T breast
[2] = test system: HOP-62 NSCLC
[3] = test system: SR leukemia
[4] = test system: UACC-257 melanoma
[5] = test system: HOP-92 NSCLC
[6] = test system: HCC-2998 colon
[7] = test system: MDA-N
[8] = test system: A498 renal
[9] = test system: IGROV1 ovarian
[10] = test system: ACHN renal
[11] = test system: SK-MEL-2 melanoma
[12] = test system: SF-268 CNS
[13] = test system: MALME-3M melanoma
[14] = test system: MDA-MB-435
[15] = test system: SF-539 CNS
[16] = test system: NCI-H522 lung
[17] = test system: HT29 colon
[18] = test system: KM12 colon
[19] = test system: BT-549 breast
[20] = test system: UACC-62 melanoma
[21] = test system: UO-31 renal
[22] = test system: MCF7 breast
[23] = test system: LOX IMVI melanoma
[24] = test system: SNB-19 CNS
[25] = test system: OVCAR-4 ovarian
[26] = test system: SW-620 colon
[27] = test system: NCI-H23 lung
[28] = test system: NCI-H460 lung
[29] = test system: U251 CNS
[30] = test system: NCI/ADR-RES ovarian
[31] = test system: SF-295 CNS
[32] = test system: CAKI-1 renal
[33] = test system: SN12C renal
[34] = test system: HL-60(TB) leukemia
[35] = test system: T-47D breast
[36] = test system: 786-0 renal
[37] = test system: SNB-75 CNS
[38] = test system: SK-MEL-28 melanoma
[39] = test system: SK-OV-3 ovarian
[40] = test system: RPMI-8226 leukemia
[41] = test system: OVCAR-8 ovarian
[42] = test system: OVCAR-3 ovarian
[43] = test system: COLO 205 colon
[44] = test system: TK-10 renal
[45] = test system: HCT-15 colon
[46] = test system: MDA-MB-231 breast
[47] = test system: PC-3 prostate
[48] = test system: RXF 393 renal
[49] = test system: A549 NSCLC
[50] = test system: SK-MEL-5 melanoma
[51] = test system: NCI-H226 lung
[52] = test system: DU-145 prostate
[53] = test system: HCT-116 colon
[54] = test system: M14 melanoma
[55] = test system: OVCAR-5 ovarian
[56] = test system: CCRF-CEM leukemia
[57] = test system: MOLT-4 leukemia
[58] = test system: EKVX NSCLC
[59] = test system: K-562 leukemia

Molecule O=C(CC(C(=O)c1cccs1)c1ccc2c(c1)OCO2)c1ccccc1 (stereo not given) has a TGI [1] greater than 100 µM, a TGI [2] greater than 100 µM and a TGI [3] greater than 100 µM. It also gave a TGI [4] greater than 100 µM, a TGI [5] greater than 100 µM and a TGI [6] greater than 100 µM. It also gave a TGI [7] greater than 100 µM, a TGI [8] greater than 100 µM and a TGI [9] greater than 100 µM. For the same molecule, the TGI [10] was greater than 100 µM, the TGI [11] was greater than 100 µM and the TGI [12] was greater than 100 µM. It also gave a TGI [13] greater than 100 µM, a TGI [14] greater than 100 µM and a TGI [15] greater than 100 µM. It also gave a TGI [16] greater than 100 µM, a TGI [17] greater than 100 µM and a TGI [18] greater than 100 µM. For the same molecule, the TGI [19] was greater than 100 µM, the TGI [20] was greater than 100 µM and the TGI [21] was greater than 100 µM. The TGI [22] was greater than 100 µM, the TGI [23] was greater than 100 µM and the TGI [24] was greater than 100 µM. The TGI [25] was greater than 100 µM, the TGI [26] was greater than 100 µM and the TGI [27] was greater than 100 µM. The TGI [28] was greater than 100 µM, the TGI [29] was greater than 100 µM and the TGI [30] was greater than 100 µM. It also gave a TGI [31] greater than 100 µM, a TGI [32] greater than 100 µM and a TGI [33] greater than 100 µM. It also gave a TGI [34] greater than 100 µM, a TGI [35] greater than 100 µM and a TGI [36] greater than 100 µM. It also gave a TGI [37] greater than 100 µM, a TGI [38] greater than 100 µM and a TGI [39] greater than 100 µM. The TGI [40] was greater than 100 µM, the TGI [41] was greater than 100 µM and the TGI [42] was greater than 100 µM. It also gave a TGI [43] greater than 100 µM, a TGI [44] greater than 100 µM and a TGI [45] greater than 100 µM. The TGI [46] was greater than 100 µM, the TGI [47] was greater than 100 µM and the TGI [48] was greater than 100 µM. It also gave a TGI [49] greater than 100 µM, a TGI [50] greater than 100 µM and a TGI [51] greater than 100 µM. For the same molecule, the TGI [52] was greater than 100 µM, the TGI [53] was greater than 100 µM and the TGI [54] was greater than 100 µM.
Work on Cc1cc(=O)oc2c(C)c3oc(CBr)cc3cc12 yielded a TGI [1] greater than 100 µM, a TGI [2] of 33.6 µM and a TGI [3] greater than 100 µM. For the same molecule, the TGI [4] was 52.5 µM, the TGI [6] was 31.9 µM and the TGI [7] was 40.9 µM. For the same molecule, the TGI [9] was 33.3 µM, the TGI [10] was 29.8 µM and the TGI [11] was 54 µM. The TGI [12] was 51.5 µM, the TGI [13] was 40.3 µM and the TGI [14] was 37.7 µM. For the same molecule, the TGI [55] was 36.8 µM, the TGI [15] was 50.7 µM and the TGI [16] was 30.1 µM. The TGI [17] was 79.9 µM, the TGI [18] was 42.1 µM and the TGI [56] was 54.2 µM. It also gave a TGI [19] of 33.5 µM, a TGI [20] of 33.9 µM and a TGI [21] of 30.3 µM. The TGI [57] was 54.3 µM, the TGI [22] was greater than 100 µM and the TGI [23] was 31.1 µM. The TGI [24] was greater than 100 µM, the TGI [25] was 65.1 µM and the TGI [26] was 30.2 µM. It also gave a TGI [27] of 40 µM, a TGI [28] of 36.4 µM and a TGI [29] of 47.1 µM. For the same molecule, the TGI [30] was 58.1 µM, the TGI [31] was 34.3 µM and the TGI [32] was 31.8 µM. For the same molecule, the TGI [33] was 42.2 µM, the TGI [34] was greater than 100 µM and the TGI [35] was 60.8 µM. The TGI [58] was greater than 100 µM, the TGI [36] was 32 µM and the TGI [37] was 47.4 µM. For the same molecule, the TGI [38] was 43.6 µM, the TGI [39] was 75.4 µM and the TGI [40] was 42.6 µM. For the same molecule, the TGI [41] was 66.7 µM, the TGI [42] was greater than 100 µM and the TGI [43] was 34.2 µM. For the same molecule, the TGI [44] was 89.6 µM, the TGI [59] was 46.7 µM and the TGI [45] was 44.3 µM. For the same molecule, the TGI [46] was 84.7 µM, the TGI [47] was 35 µM and the TGI [49] was 33.3 µM. It also gave a TGI [50] of 26 µM, a TGI [51] of 34 µM and a TGI [52] greater than 100 µM. The TGI [53] was 39.4 µM and the TGI [54] was 34.8 µM.
